No end group written: not given here.
Legend:
B16-BL6 cells [1] = assay: Adhesion of high metastatic B16-BL6 melanoma cells to coated substrate (methylene blue uptake); assay type: cell-based, murine; details: plates coated with 10, 50 or 250 μg/well peptide or 10 μg/ml plasmin-digested thrombin; 37° C., 2 hours
Procedure: (§1) Confluent endothelial cells were dissociated with trypsin-EDTA solution, washed once in growth medium and resuspended in DMEM containing 0.2% bovine serum albumin (BSA). 1.3×10^5 cells/well/0.2 ml DMEM containing 0.2 BSA were added to each protein-coated well and incubated at 37° C. for 2 h. The plates were then washed three times with phosphate batter saline (PBS) and the firmly attached cells were fixed with 3% paraformaldehyde. Fixed cells were then rinsed with 0.1 M borate buffer (pH 8.5), stained for 10 mins. at 22° C. with 0.1 ml/well methylene blue (1% in 0.1 M borate buffer, pH 8.5) and washed four times in borate buffer. This procedure removed practically all non cell-bound dye. Methylene blue which was incorporated by cells was dissolved with 0.1 N HCl (0.2 ml/well) for 40 mins. at 37° C., and determined by its absorbance at 600 nm. Tissue culture plates were coated with either 10, 50 or 250 μg/well of Th-1; with 10 μg/ml of thrombin digested by incubation at 22° C. for 1 hour with plasmin (2 μg/ml); or with 0.2% BSA which served as control (CON). 0.5×10^6 cells/wells of B16-BL6 or B16-F1 cells, which are known to present in vivo high and low pulmonary colonization, respectively, were incubated at 37° C. for 2 hours with the plates coated with the substrates described above. […] The level of cell attachment was evaluated by the methylene blue uptake assay described in I(E) above. […]

B16-F1 cells = assay: Adhesion of low metastatic B16-F1 melanoma cells to coated substrate (methylene blue uptake); assay type: cell-based, murine; details: plates coated with 10, 50 or 250 μg/well peptide or 10 μg/ml plasmin-digested thrombin; 37° C., 2 hours
Procedure: as §1

B16-BL6 cells [2] = assay: Inhibition of B16-BL6 cell adhesion to modified RGD-exposed thrombin (plasmin-digested); assay type: cell-based, murine
Procedure: Fixed cells were then rinsed with 0.1 M borate buffer (pH 8.5), stained for 10 mins. at 22° C. with 0.1 ml/well methylene blue (1% in 0.1 M borate buffer, pH 8.5) and washed four times in borate buffer. This procedure removed practically all non cell-bound dye. Methylene blue which was incorporated by cells was dissolved with 0.1 N HCl (0.2 ml/well) for 40 mins. at 37° C., and determined by its absorbance at 600 nm. 10 μg/ml of thrombin was digested with 2 μg/ml plasmin by incubation in 22° C. for 1 hour. Tissue culture plates were coated with digested […] by incubation at 4° C. for 2 hours. 1×10^6 B16-BL6 cells were incubated, at 22° C. for 30 mins. with increasing concentrations of Th-1 peptide (20-300 μg) prior to attachment to treated tissue culture plates by incubation at 37° C. for 2 hours. The attached cells were washed 3 times with PBS and fix with 3% formaldehyde. The level of attachment was evaluated by the methylene blue uptake assay described in I(E) above.

[3] = system: B16-BL6 murine melanoma cells; assay: Inhibition of lung colonization of co-injected B16-BL6 melanoma cells in C57BL/6 mice; assay type: in vivo
Procedure: 1×10^5 cells/0.2 ml/mouse B16-BL6 cells were injected into the lateral tail vein of unanesthetized C57BL/6 mice. The mice were monitored on a daily basis and sacrificed 2 weeks later by cervical dislocation. The animals were necropsied, and the lungs were removed, washed in water, and fixed in Bouin's solution (containing saturated solution of picric acid, 2% glacial acetic acid and 3% formaldehyde). The number of lung nodules was determined under a dissecting microscope.
B16-BL6 cell monolayers in culture were detached for 2 mins. with 0.02% EDTA and resuspended gently to 1×10^5 cells/0.2 ml DMEM. 0.5 mg/1×10^5 cells/0.2 ml of Th-1 was preincubated, at 37° C. for 30 mins, with a half of the cells' cultures prior to injecting mice. A single cell suspension (1×10^5 cells/0.2 ml/mouse), comprising either Th-1 treated or Th-1 untreated melanoma cells was injected slowly into the lateral tail vein of C57BL/6 mice.
Fourteen days after injection, the mice were sacrificed, and their lungs were excised and fixed with 10% formaldehyde and stained with saturated picric acid. The number of surface melanoma colonies was counted visually or with the aid of a dissecting microscope.

MeWoLN161 (61) cells = assay: Adhesion of high metastatic human melanoma cells 61 to Th-1; assay type: cell-based; details: 100 μg/ml Th-1; compared with low metastatic MeWo
Procedure: (§2) Human melanoma cells established from lymph node metastases, being either MeWo cell lines representing diverse metastatic potentials, or a highly metastatic cell line originating from a melanoma patient (Nip et al., J. Clin. Invest. 90:1406-1413 (1992)) were used. High metastatic cells were selected by adhesion to lymph nodes and were designated as MeWoLN161 (also referred to as "61").
(§3) The cells were incubated with 100 μg/ml Th-1 and their adherence was determined as described above. As control, the level of adherence of the cells to BSA coated substrate was determined.

MIM/8 cells = assay: Adhesion of high metastatic human melanoma cells MIM/8 to Th-1; assay type: cell-based; details: 100 μg/ml Th-1; compared with low metastatic MeWo
Procedure: as §2, §3

rat-aorta ring = assay: Apoptosis in rat aorta ring by TUNEL nuclei staining; assay type: cell-based
Procedure: Apoptosis, or programmed cell death, can be evaluated by DNA fragmentation using a technique based on terminal deoxynucleotidyl transferase (TdT) reactivity with DNA breaks. This histochemical staining was based on the original "TUNEL" method (Gavrieli, et al., J. Cell Biol. 119:493-501 (1992)). Tissue was fixed in buffered formalin; after deparaffinization and hydration, the slide was quenched with H2 O2, in methanol. In order to strip the nuclear proteins, the tissue was preincubated in Tris-HCl and then incubated with proteinase K (20 μg/ml) for 15 minutes and washed. DNA fragments are elongated and labeled with biotinylated poly dUTP, introduced by terminal deoxynucleotidyl transferase. Finally, bound biotin is stained by avidin conjugated peroxidase, developed with nickle-enhanced diaminobenzidine. For positive control (FIG. 12, E) staining serves a preparation that was exposed to DNase digestion (according to Gavieli, et al., supra). […] It is important to emphasize that the RGD derived peptide-Th-1, is capable of inducing in addition to inhibition of micro-vessel sprout formation, cellular signaling of programmed cell death, indicating a possible explanation for the mechanism by which angiogenesis is prevented by Th-1.

melanoma cells = details: Humphries et al. (1988); cited from earlier work

Procedure for rat aorta rings: Type 1 collagen is prepared from the tail tendons of adult Sprague-Dawley rats. Briefly, the collagen fibers are solubilized by a slow stirring for. 48 hours at 4° C. in a sterile, 1/1000 (v/v) acetic acid solution (300 ml for 1 gr. of collagen). The resulting solution is filtered through a sterile triple gause and centrifuged at 16,000 gr for 1 hour at 4° C. The collagen matrix gel is obtained by simultaneously raising the pH and ionic strength of the collagen solution. For this purpose, seven vols. of collagen solution was quickly mixed with 1 vol. of 10×Minimum Essential Medium and 2 vols. of sodium bicarbonate (0.15 M).
Thoratic aortas are obtained from 1-2 month old SD rats sacrificed by decapitation. The aortas are immediately transferred to a Petri dish with PBS. The fibroadipose tissue around the aorta is carefully removed under a dissecting microscope and 1 mm long aortic rings are sectioned and extensively rinsed with PBS.
The collagen solution (0.2 ml) is added to each of 16 mm well and gellation was allowed for 15 mins. at 37° C. The aorta ring is transferred and positioned to the center of the gel and another 0.4 ml of the collagen solution is carefully poured on top of the ring. After the gel is formed, 0.4 ml of Serum-free Endothelial Growth Medium is added and changed every other day.
In this system, the rings of aorta are cultured in a three-dimensional gel of collagen sprouts to microvessel.

Row | Substance | adhesion of B16-BL6 cells to the substrate (B16-BL6 cells [1]) | adhesion of B16-F1 cells to the substrate (B16-F1 cells) | concentration at which inhibition of adhesion to modified RGD-exposed thrombin was already obtained (B16-BL6 cells [2]; B16-BL6 cells) [µM] | inhibition of adhesion of B16-BL6 cells to modified RGD-exposed thrombin (B16-BL6 cells [2]; cells preincubated with 20-300 μg peptide, 22° C., 30 mins) | inhibition of lung colonization ([3]; 0.5 mg peptide/mouse, co-injected i.v. with B16-BL6 cells, 14 days) | effect on melanotic colonies in the lungs ([3]; co-injection with B16-BL6 cells, 14 days after injection, vs B16-BL6 alone) | potency in inhibiting metastasis of melanoma cells relative to GRGDS peptide ([3]; vs GRGDS of prior art) | adherence of 61 cells to Th-1 compared to BSA control (MeWoLN161 (61) cells) | adherence of MIM/8 cells to Th-1 compared to BSA control (MIM/8 cells) | concentration giving maximal induction of apoptosis (rat-aorta ring) [µg/mL] | apoptosis (nuclei staining, TUNEL) (rat-aorta ring; 10-250 μg/ml) | concentration giving 50% inhibition of explant formation (rat aorta rings) [µg/mL] | concentration giving complete inhibition (rat aorta rings) [µg/mL] | inhibition of angiogenesis in aorta rings (rat aorta rings; 100 μg/ml, vs peptide of similar size without RGD-site) | microvessel formation after longer incubation then washout (rat aorta rings; 150 μg/ml for 6 days, then fresh medium) | microvessel formation with peptide constantly present (rat aorta rings; 150 μg/ml, up to 14 days) | inhibition in sprout formation of the microvessel (rat aorta rings; 10-250 μg/ml) | concentration at which inhibition of metastasis was evident (melanoma cells) [mg/mouse]
1 | AGYKPDEGKRGDAC [Th-1, I.D. No. 2, residues 178-191 of native thrombin] | high, dose dependent adhesion | low relatively dose independent adhesion level | 16 | inhibited, in a dose depended manner | Over 90% | marked reduction of melanotic colonies | about 20 fold | significantly higher level of adherence | significantly higher level of adherence | 250 | dose dependent manner | ~50 | 100 to 250 | able to inhibit angiogenesis | further increased inhibition | complete inhibition | dose dependent inhibition | –
2 | GRGDS | – | – | – | – | – | – | – | – | – | – | – | – | – | – | – | – | – | 3
